Test results taken from PubChem BioAssay (NCI).
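Grown in 96-well plates, cells were treated for 48 hours with each compound at five concentrations. Insufficient inhibition: endpoint recorded as highest concentration tested. Abbreviation: GI50, concentration required for 50% inhibition of growth. At the TGI there is no net growth.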

Columns and labels:
Experiment in all cases: NCI-60 cell line screen, 48 h
HOP-62 NSCLC = system: HOP-62 NSCLC
HCT-116 colon = system: HCT-116 colon
SK-MEL-5 melanoma = system: SK-MEL-5 melanoma
ACHN renal = system: ACHN renal
T-47D breast = system: T-47D breast
SF-268 CNS = system: SF-268 CNS
COLO 205 colon = system: COLO 205 colon
SK-MEL-28 melanoma = system: SK-MEL-28 melanoma
UO-31 renal = system: UO-31 renal
RPMI-8226 leukemia = system: RPMI-8226 leukemia
K-562 leukemia = system: K-562 leukemia
CCRF-CEM leukemia = system: CCRF-CEM leukemia
BT-549 breast = system: BT-549 breast
TK-10 renal = system: TK-10 renal
KM12 colon = system: KM12 colon
HL-60(TB) leukemia = system: HL-60(TB) leukemia
UACC-257 melanoma = system: UACC-257 melanoma

| SMILES | TGI (HOP-62 NSCLC) [µM] | TGI (HCT-116 colon) [µM] | TGI (SK-MEL-5 melanoma) [µM] | TGI (ACHN renal) [µM] | TGI (T-47D breast) [µM] | TGI (SF-268 CNS) [µM] | TGI (COLO 205 colon) [µM] | TGI (SK-MEL-28 melanoma) [µM] | TGI (UO-31 renal) [µM] | TGI (RPMI-8226 leukemia) [µM] | TGI (K-562 leukemia) [µM] | TGI (CCRF-CEM leukemia) [µM] | TGI (BT-549 breast) [µM] | TGI (TK-10 renal) [µM] | TGI (KM12 colon) [µM] | TGI (HL-60(TB) leukemia) [µM] | TGI (UACC-257 melanoma) [µM] | GI50 (SK-MEL-28 melanoma) [µM] | GI50 (RPMI-8226 leukemia) [µM] | GI50 (HL-60(TB) leukemia) [µM] |
| --- | --- | --- | --- | --- | --- | --- | --- | --- | --- | --- | --- | --- | --- | --- | --- | --- | --- | --- | --- | --- |
| NC(=O)C[C@H](NC(=O)C1(NC(=O)[C@H](Cc2ccc(CP(=O)(O)O)cc2)NC(=O)C(=O)O)CCCCC1)C(=O)NCCCc1cccc2ccccc12 | > 10 | > 10 | > 10 | > 10 | > 10 | > 10 | > 10 | > 10 | > 10 | > 10 | > 10 | > 10 | > 10 | > 10 | > 10 | > 10 | > 10 | – | – | – |
| O=[N+]([O-])c1ccc2nc(/C=C(\O)c3ccccc3)c(/C=C(\O)c3ccccc3)nc2c1 | 35.2 | > 37.8 | > 39.2 | > 100 | 37.3 | 53.4 | > 100 | > 100 | 31.6 | 61.7 | > 100 | 35.8 | 62.1 | 63 | > 100 | 52.6 | > 100 | 8.3 | 5.21 | 13.6 |
